The text below walks through data of patent US20140155445A1, “Compounds and Methods for Treating Cancer and Diseases of the Central Nervous System” (Osta Biotechnologies Inc., priority 2007, published 2014).

By half-life is commonly meant the time needed for the level to fall by half in the phase considered. The Tmax is the time at which the peak concentration occurs. Broadly, the Cmax is the maximum level reached in the sampled fluid or tissue.

Structures are written as SMILES. “Also recorded” adds a separate entry of the source. Like-named read-outs stand apart in the source and are kept apart here.

For data set [1], the system named is human pancreatic tumor cells. In words: Cell proliferation, [3H]thymidine incorporation, human pancreatic tumor cells. It is filed as cell-based. The note with it: 6.5 μM, 18 h. In general terms: Uptake of a labelled nucleoside into DNA is a usual measure of proliferation.
The nature of data set [2]: Pharmacokinetic evaluation of QC-199 in mouse plasma and brain, IP or oral. Conditions: for half-life: from Lambda z; for AUC: read-out: AUCall (0-12); for Cmax: mouse, male CD-1 mice. It is filed as in vivo. The method, then:
Regular male CD1 mice, 6 weeks old, were obtained from Charles River Laboratories, St. Zotique, PQ, Canada. The mice weighed 22-28 g. The experiments were approved by the Animal Care Committee, McGill University, Montreal, Quebec. The animals were housed in individual cages and were fed standard rodent chow and water ad libitum. Mice weights were measured with a digital balance accurate to 0.05 g and then received QC-199 at the indicated doses either orally, or via i.p. injections or following i.v. slow infusion. In the case of i.v. injection or i.v. infusion, mice were anesthetized using isoflurane-based system (DISPOMED, MODUFLEX COMPACT NRB, 3975-0800-000). For the infusion, a mini pump (NE-1800, New Era Pump Systems, Inc.) was used to infuse the compound via the tail vein during a 2 h period. In one study, blood and brain tissue samples were collected at various time points after administration of QC-199 using EDTA tubing (Das Original S-Monovette EDTA KE/1.2 ml lot.9094102 and Needle for S-Monovette 22G lot. 8073401) via cardiac puncture and immediately stored at 4° C. Serum was collected after the samples were centrifuged 2200×, 4° C. for 20 minutes and stored at −80° C. until analysis. For the brain tissue collection, skin of mice was removed and brain was carefully dissected out from the skull, transferred into a Petri dish, briefly washed with ice-cold phosphate-buffered saline (PBS), and immediately stored at −80° C. until further analysis.
The assay of QC-199 in mouse plasma and brain samples was carried out using qualified LC/MS/MS assay methods.

The test system of another data set is APPswe/PS1dE9 mice. In words: Behavioral studies (maze, fear conditioning) in APPswe/PS1dE9 mice. It is filed as in vivo, mouse. The method, then: The experiments were performed at Pennington Biomedical Research Centre (PBRC) of Lousiana State University, Baton Rouge, Lousiana and were approved by the Institutional Animal Care and Use Committee (IACUC) of PBRC.
The APPswe/PS1dE9 mice were generated against a C57/BL6J background by breeding either +/+ males or females with −/− females or males, respectively.
Memantine (10 mg/kg) and both doses of QC-199 (15 mg/kg & 30 mg/kg) were prepared in batches and frozen for later use. Each compound was weighed and dissolved in injectable sterile saline solution. Memantine was prepared at a concentration of 1 mg/ml, the 15 mg/kg dose of QC-199 at a volume of 15 mg/10 ml, and the 30 mg/kg dose of QC-199 at a volume of 30 mg/10 ml. The compounds were prepared in this volume so that the mice could easily be injected based on their body weight, e.g., a 35 gram mouse was injected with 0.35 ml dosing solution.
Memantine and QC-199 dosing solutions were administered to mice via i.p. injections. The mice were weighed 3 times/week and were injected with a volume that matched their body weight. The mice were injected daily and the injection located was alternated each day to avoid potential complications from injection in the same location on a daily basis.
After reaching their respective treatment duration, the wild type and APP/PS1 double transgenic mice were run through the STM and fear conditioning. The STM consisted of one day of straight run training (running down an alley from the start box to the goal box). This phase was implemented to establish the contingency that moving forward would provide escape into the dark and dry goal box. The mice were required to reach a criterion of completing the straight run in 15 sec or less on 7 out of 9 trials over a maximum of 15 trials. […] The following day each mouse was administered 15 trials in the STM with approximately 7-10 min between each trial where they were placed into a holding cage with a towel. The latency to reach the goal box and the number of errors committed were the dependent measures of learning. However, in our experience, errors committed is much more indicative of learning and is reported for this project. Pictures of the straight run (A) and maze (B) are shown in FIG. 42, along with a schematic (C) of the maze indicating the correct path. The data from the maze was collapsed into blocks of 5 trials for data summary and presentation.
Med Associates Inc.'s MED-VFC-NIR-M NIR Video Fear Conditioning System for Mouse, Pavlovian fear conditioning was conducted after the STM. On Day 1 the mice were placed in Context 1 and given 5 tone+shock pairings. On day 2 the mice were placed back into Context 1 and their freezing response to being placed back into the original context where fear conditioning occurred was measured. Freezing is operationally defined as the cessation of all movement except that required for respiration. Freezing was measured over 10 minutes, and data were summarized in 1-min intervals. On day 3 the mice were placed into a novel context (Context 2) for 10 min. […] For the final 5 min, the tone paired with shock during fear conditioning was presented. Again, the data was summarized in 1-min intervals.
Maze data was analyzed by two-way ANOVAs to determine treatment group effects for both errors and run time after the data was collapsed into three 5 trial blocks. Planned comparisons of transgenic mice treated with saline with each of the drug treatments, memantine or QC-199 at 15 mg/kg/day and 30 mg/kg/day were conducted to evaluate group differences in the maze at each trial block and both tone and contextual fear conditioning tests. The critical a level was set at 0.05 for all statistical tests. The values in FIGS. 46A-46C represent the means±S.E.M. The data was analyzed using the SPSS statistical program version 11.0. […]

Take `Brc1ccc(CCC2(Cn3ccnc3)OCCO2)cc1.Cl` [QC-56, 1-((2-(2-(4-Bromophenyl)ethyl)-1,3-dioxolan-2-yl)methyl)-1H-imidazole hydrochloride]: in data set [1] (hHO-1-transfected human pancreatic tumor cells), the “effect of hHO-1 transfection on 3H-thymidine incorporation” value is given as “significantly attenuated”. The “3H-thymidine incorporation vs untreated cells” value in data set [1] (non-transfected human pancreatic tumor cells, hydrochloride) is recorded as “significantly attenuated; also recorded: marked reduction”.

In the case of `Brc1ccc(CCCCn2ccnc2)cc1.Cl` [QC-199, 1-[4-(4-bromophenyl)butyl]-1H-imidazole hydrochloride], the “% Extrapolated AUC” value is listed as 13% in data set [2] (brain, IP 60 mg/kg) and 37% in data set [2] (brain, Oral 60 mg/kg). Moreover, the “AUC(0-inf)” value was 427 µg·h/g in data set [2] (brain, IP 60 mg/kg); 361 µg·h/g in data set [2] (brain, Oral 60 mg/kg); 85000 ng·h/mL in data set [2] (male, CD-1, mouse, in vivo, plasma, IP 60 mg/kg, read-out: AUC0-inf); 67000 ng·h/mL in data set [2] (male, CD-1, mouse, in vivo, plasma, Oral 60 mg/kg, read-out: AUC0-inf). Moreover, the “AUCall (0-12)” value in data set [2] (brain, IP 60 mg/kg) was 370 µg·h/g; in data set [2] (brain, Oral 60 mg/kg), 227 µg·h/g. In data set [2] (from oral-to-IP AUC ratios in brain and plasma), the oral bioavailability result was “moderately high oral bioavailability”. Besides, the concentration at 5 min in data set [2] (male, CD-1, mouse, brain, 60 mg/kg, IP or oral administration, above the upper calibration range, read-out: brain tissue concentration at 5 min post-dose) was greater than 10000 ng/g. In addition, the half-life is 4.3 h in data set [2] (male, CD-1, mouse, in vivo, ip, 60 mg/kg, brain, IP 60 mg/kg); 4.8 h in data set [2] (male, CD-1, mouse, in vivo, ip, 60 mg/kg, plasma, IP 60 mg/kg); 8.6 h in data set [2] (male, CD-1, mouse, in vivo, po, 60 mg/kg, brain, Oral 60 mg/kg); 7.1 h in data set [2] (male, CD-1, mouse, in vivo, po, 60 mg/kg, plasma, Oral 60 mg/kg). Further, the Tmax in data set [2] (male, CD-1, mouse, in vivo, brain, IP 60 mg/kg) was 0.167 h; in data set [2] (male, CD-1, mouse, in vivo, brain, Oral 60 mg/kg), 0.167 h. For the same molecule, the AUC is 72000 ng·h/mL in data set [2] (male, CD-1, mouse, in vivo, plasma, IP 60 mg/kg) and 47000 ng·h/mL in data set [2] (male, CD-1, mouse, in vivo, plasma, Oral 60 mg/kg). Moreover, the Cmax in data set [2] (in vivo, brain, IP 60 mg/kg) turned out to be 79000 ± 2200 ng/g; in data set [2] (in vivo, brain, Oral 60 mg/kg), 39000 ± 2700 ng/g; in data set [2] (in vivo, plasma, IP 60 mg/kg) it was 20000 ± 1200 ng/mL; in data set [2] (in vivo, plasma, Oral 60 mg/kg), 9100 ± 800 ng/mL. The AUC_%Extrap_obs in data set [2] (plasma, IP 60 mg/kg) is recorded as 16%; in data set [2] (plasma, Oral 60 mg/kg), 30%. The “effect on maze errors and contextual fear conditioning (summary)” value with APPswe/PS1dE9 mice (Memantine, QC-199 15 mg/kg and 30 mg/kg, dtg mice) is listed as “positive effect”. Moreover, the “maze errors vs saline-treated APP/PS1 mice” value in the data set on APPswe/PS1dE9 mice (QC-199 30 mg/kg/day i.p., trend at Trial Block 3 (p=0.052)) was “did not exhibit improved performance at any of the Trial Blocks”. Further, in the data set on APPswe/PS1dE9 mice (QC-199 15 and 30 mg/kg/day, Memantine 10 mg/kg, Time Blocks 1-4), the “contextual fear conditioning (freezing) vs saline-treated APP/PS1 mice” value is “none reached significance”.
